These results are taken from patent US20220235065A1 (Epizyme, Inc., priority 2016, published 2022).

For orientation: IC50 means the concentration at which inhibition is half-maximal.

The target of this assay is T1, recombinant purified human EHMT2 913-1193 (Homo sapiens, UniProt Q96KQ7).
T1 construct: Recombinant purified human EHMT2 913-1193 (55 μM) synthesized by Viva was used for all experiments; purchased Viva
T1 sequence (Q96KQ7 913-1193): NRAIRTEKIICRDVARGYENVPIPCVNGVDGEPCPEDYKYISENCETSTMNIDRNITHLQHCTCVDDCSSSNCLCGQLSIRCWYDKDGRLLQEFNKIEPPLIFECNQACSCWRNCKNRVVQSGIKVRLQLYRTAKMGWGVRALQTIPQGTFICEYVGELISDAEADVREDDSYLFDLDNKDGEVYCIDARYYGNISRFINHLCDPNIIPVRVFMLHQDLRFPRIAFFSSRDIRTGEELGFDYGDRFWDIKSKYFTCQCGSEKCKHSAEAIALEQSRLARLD
As to the kind of experiment: EHMT2 enzyme assay on histone peptide substrate (3H-SAM Flashplate). The settings on record: read-out: EHMT2 PEP (IC50 μM). The assay is classed as biochemical. As for the experimental part: Recombinant purified human EHMT2 913-1193 (55 μM) synthesized by Viva was used for all experiments. Biotinylated histone peptides were synthesized by Biopeptide and HPLC-purified to >95% purity. Streptavidin Flashplates and seals were purchased from PerkinElmer and 384 Well V-bottom Polypropylene Plates were from Greiner. ^3H-labeled S-adenosylmethionine (3H-SAM) was obtained from American Radiolabeled Chemicals with a specific activity of 80 Ci/mmol. Unlabeled SAM and S-adenosylhomocysteine (SAH) were obtained from American Radiolabeled Chemicals and Sigma-Aldrich respectively. Flashplates were washed in a Biotek ELx-405 with 0.1% Tween. 384-well Flashplates and 96-well filter binding plates were read on a TopCount microplate reader (PerkinElmer). Compound serial dilutions were performed on a Freedom EVO (Tecan) and spotted into assay plates using a Thermo Scientific Matrix PlateMate (Thermo Scientific). Reagent cocktails were added by Multidrop Combi (Thermo Scientific).
General Procedure for EHMT2 Enzyme Assay on Histone Peptide Substrate.
10-point curves of test compounds were made on a Freedom EVO (Tecan) using serial 3-fold dilutions in DMSO, beginning at 2.5 mM (final top concentration of compound was 50 μM and the DMSO was 2%). A 1 μL aliquot of the inhibitor dilution series was spotted in a polypropylene 384-well V-bottom plate (Greiner) using a Thermo Scientific Matrix PlateMate (Thermo Scientific). The 100% inhibition control consisted of 1 mM final concentration of the product inhibitor S-adenosylhomocysteine (SAH, Sigma-Aldrich). Compounds were incubated for 30 minutes with 40 μL per well of 0.031 nM EHMT2 (recombinant purified human EHMT2 913-1193, Viva) in 1× assay buffer (20 mM Bicine [pH 7.5], 0.002% Tween 20, 0.005% Bovine Skin Gelatin and 1 mM TCEP). 10 μL per well of substrate mix comprising assay buffer, ^3H-SAM (3H-labeled S-adenosylmethionine, American Radiolabeled Chemicals, specific activity of 80 Ci/mmol), unlabeled SAM (American Radiolabeled Chemicals), and peptide representing histone H3 residues 1-15 containing C-terminal biotin (appended to a C-terminal amide-capped lysine, synthesized by Biopeptide and HPLC-purified to greater than 95% purity) were added to initiate the reaction (both substrates were present in the final reaction mixture at their respective Km values, an assay format referred to as “balanced conditions”). Reactions were incubated for 60 minutes at room temperature and quenched with 10 μL per well of 400 μM unlabeled SAM, then transferred to a 384-well streptavidin Flashplate (PerkinElmer) and washed in a Biotek ELx-405 well washer with 0.1% Tween after 60 minutes. 384-well Flashplates were read on a TopCount microplate reader (PerkinElmer).
IC50 curves were generated using triplicate wells per concentration of compound. The IC50 is the concentration of compound at which measured methylation is inhibited by 50% as interpolated from the dose response curves. IC50 values were calculated using a non-linear regression (variable slope-four parameter fit model) with by the following formula
where Top is fixed at 100% and Bottom is fixed to 0%, [I]=concentration of inhibitor, IC50=half maximal inhibitory concentration and n=Hill Slope.
Take `CNc1nc2cc(-c3cc4[nH]ccc4cn3)c(OC)cc2n1C` [Compound 209]: the IC50 was 1 to 10 µM. Take `CNc1cc(C)nc(Nc2ccc(OC)c(-c3cc4[nH]cnc4cn3)c2)n1` [Compound 210]: the IC50 was 1 to 10 µM. Consider `CNc1cc(C)nc(Nc2ccc(OC)c(-n3cc([C@@H]4CCCN4)nn3)c2)n1` [Compound 212, (S)—N2-(4-methoxy-3-(4-(pyrrolidin-2-yl)-1H-1,2,3-triazol-1-yl)phenyl)-N4,6-dimethylpyrimidine-2,4-diamine], for which the IC50 was less than 0.1 µM. For the compound `CNc1cc(C)nc(Nc2ccc(OC)c(-n3cc([C@H]4CCCN4)nn3)c2)n1` [Compound 213], the IC50 fell in the range of 0.1 to 1 µM.

Consider `CNC1=Nc2cc(-c3cc4[nH]ccc4cn3)c(OC)cc2C12CCC2` [Compound 214], for which the IC50 was less than 0.1 µM. In the case of `CNC1=Nc2cc(-c3cc4ccncc4[nH]3)c(OC)cc2C12CCC2` [Compound 215], the IC50 was less than 0.1 µM.

As for `CNC1=Nc2cc(-c3[nH]c4cnccc4c3Cl)c(OC)cc2C12CCC2` [Compound 216], the IC50 was less than 0.1 µM.

For `CNc1cc(C)nc(Nc2ccc(OC)c(-c3ccc4c(c3)NC(=O)C4)c2)n1` [Compound 218], the IC50 is greater than 10 µM. Turning to `CNc1cc(C)nc(Nc2ccc(OC)c(-c3cc4c(cn3)CC(=O)N4)c2)n1` [Compound 219], the IC50 fell in the range of 1 to 10 µM.

Consider `CNc1cc(C)nc(Nc2ccc(OC)c(-c3cc4[nH]ccc4cn3)c2OC)n1` [Compound 220], for which the IC50 was greater than 10 µM. As for `CNc1cc(C)nc(Nc2ccc(OC)c(-c3cc4[nH]ccc4cn3)c2F)n1` [Compound 221], the figure is 0.1 to 1 µM. In the case of `CNCc1cnn(-c2c(OC)ccc(Nc3nc(C)cc(NC)n3)c2OC)c1` [Compound 222], the concentration for half-maximal inhibition (IC50) fell in the range of 0.1 to 1 µM. As for `CNc1cc(C)nc(Nc2ccc(OC)c(-c3cnc4cc[nH]c4c3)c2)n1` [Compound 223], the IC50 is less than 0.1 µM. With `CNc1cc(-c2cc(Nc3nc(C)cc(NC)n3)ccc2OC)ncn1` [Compound 225], the IC50 was 1 to 10 µM.

Consider `CNc1cc(C)nc(Nc2ccc(OC)c(-c3cc4[nH]ccc4nc3C)c2)n1` [Compound 228], for which the 50% inhibitory concentration (IC50) was less than 0.1 µM. `CNc1cc(C)nc(Nc2ccc(OC)c(-c3cc4[nH]cc(F)c4cn3)c2)n1` [Compound 229]: the IC50 fell in the range of 0.1 to 1 µM.

In the case of `CNc1cc(-c2cc(Nc3nc(C)cc(NC)n3)ccc2OC)nc(C)n1` [Compound 230], the IC50 fell in the range of 0.1 to 1 µM. Take `COc1cc(NC2CCNCC2)ccc1-c1cc2[nH]ccc2cn1` [Compound 231]: the IC50 lay within 1 to 10 µM. For `CNc1cc(C)nc(Nc2ccc(OC)c(-c3cc(C4CC4)ncn3)c2)n1` [Compound 232], the IC50 was greater than 10 µM.

As to `CNc1cc(C)nc(Nc2ccc(OC)c(-c3cc(C4CC4)cnn3)c2)n1` [Compound 233], the half-maximal inhibitory concentration (IC50) was in the range of 1 to 10 µM. On to `CNc1cc(C)nc(Nc2ccc(OC)c(-c3cn4ccnc4cn3)c2)n1` [Compound 234], for which the IC50 was greater than 10 µM.

Turning to `CNc1cc(C)nc(Nc2ccc(OC)c(-c3cc4cnoc4cn3)c2)n1` [Compound 235], the IC50 was greater than 10 µM. As for `COc1cc(NC2CCNCC2)ccc1-c1cc(C2CC2)cnn1` [Compound 236], the figure is greater than 10 µM. For `CNc1cc(C)nc(Nc2ccc(OC)c(-c3cc4[nH]ccc4c(C)n3)c2)n1` [Compound 237], the IC50 was less than 0.1 µM.

Regarding `CNC1=Nc2cc(-c3[nH]c4cnccc4c3C)c(OC)cc2C12CCC2` [Compound 238, 5′-methoxy-N-methyl-6′-(3-methyl-1H-pyrrolo[2,3-c]pyridin-2-yl)spiro[cyclobutane-1,3′-indol]-2′-amine], the concentration for half-maximal inhibition (IC50) is less than 0.1 µM. To `CNc1cc(C)nc(Nc2ccc(C)c(C(=O)Nc3cccnc3)c2)n1` [Compound 239] belongs greater than 10 µM; to `CNc1cc(C)nc(Nc2ccc(Cl)c(C(=O)Nc3cccnc3)c2)n1` [Compound 240], greater than 10 µM; to `CNc1cc(C)nc(Nc2ccc(C)c(-c3cc4ccncc4[nH]3)c2)n1` [Compound 241], less than 0.1 µM. In the case of `CNc1cc(C)nc(Nc2cccc(C(=O)Nc3cccnc3)c2)n1` [Compound 242], the IC50 is greater than 10 µM.
